# Reference: patent US20230033195A1, “METHODS AND COMPOSITIONS FOR IMPROVING COGNITIVE FUNCTION” (THE JOHNS HOPKINS UNIVERSITY, priority 2011, published 2023)
# Where two headings read alike, the source gives them in different places.
# Key:
# DG/CA3 of aMCI subjects = assay: fMRI activity during lure stimuli correctly identified as similar, DG/CA3; assay type: in vivo, human; details: 125 mg twice a day for two weeks
# Protocol: FIG. 8B depicts the average activity in the left CA3 of aMCI subjects with placebo treatment or levetiracetam treatment (125 mg twice a day for two weeks) during the presentation of lure stimuli that the subject correctly identified as "similar."
# A within-subjects trial of 8 weeks duration, involving 17 amnestic MCI (aMCI) subjects and 17 age-matched controls with a low dose treatment of levetiracetam is conducted. During the course of the study, each aMCI subject receives both drug and placebo treatments separately in two periods of two weeks each, with the order of treatments among different aMCI subjects counterbalanced (see FIG. 7). Age-matched control subjects treated with placebo serve as a further control. Cognitive testing and fMRI imaging data are obtained from the subjects after each two week period of drug/placebo treatment.
# Imaging data are obtained through high-resolution methods developed in the Stark laboratory. Data are collected on a Phillips 3 Tesla scanner (Eindhoven, The Netherlands) equipped with an 8-channel SENSE (Sensitivity Encoding) head coil, located at the F.M. Kirby Research Center for Functional Brain Imaging at the Kennedy Krieger Institute (Baltimore, MD). […]
# Group data are analyzed using a two-way Analysis of Variance (ANOVA) with trial types and group as fixed factors, and subject as a random factor nested within group. […]
# aMCI subjects = assay: neuropsychological tests outside the scanner; assay type: in vivo, human; details: 125 mg twice a day for two weeks, vs placebo
# Protocol: A within-subjects trial of 8 weeks duration, involving 17 amnestic MCI (aMCI) subjects and 17 age-matched controls with a low dose treatment of levetiracetam is conducted. During the course of the study, each aMCI subject receives both drug and placebo treatments separately in two periods of two weeks each, with the order of treatments among different aMCI subjects counterbalanced (see FIG. 7). Age-matched control subjects treated with placebo serve as a further control. Cognitive testing and fMRI imaging data are obtained from the subjects after each two week period of drug/placebo treatment. All participants undergo neuropsychological evaluation at the time of assessment for treatment efficacy (Visits 1 and 2), as well as at the Baseline Visit. The evaluation occurs outside of the scanner and includes the Buschke Selective Reminding Test (Buschke and Fuld, 1974) and the Verbal Paired Associates subtest, the Logical Memory subtest, the Visual Reproduction subtest of the Wechsler Memory Scale-Revised (WMS-R) (Wechsler, 1997), and the Benton Visual Retention Test, as these tasks are particularly sensitive to medial temporal lobe function and early memory problems (Marquis et al., 2002 and Masur et al., 1994). Additionally, subjects are asked to complete tests of more general cognitive function such as tests to assess general mental status, executive function, attention and general naming ability. All neuropsychological tests are administered by a trained research assistant during a 60-minute session. As the three neuropsychological assessments in this study occur within a time period of 8 weeks, different versions of the neuropsychological tests are used to minimize test specific practice effects. Breaks are provided to the subject as needed.
# [1] = cited from earlier work
smiles,measurement,setting,value
"CC[C@@H](C(N)=O)N1CCCC1=O [levetiracetam, (2S)-2-(2-oxopyrrolidin-1-yl) butanamide]",DG/CA3 activity compared with control subjects treated with placebo,DG/CA3 of aMCI subjects,statistically indistinguishable
same,"DG/CA3 activity during successful memory judgments, vs placebo treatment",DG/CA3 of aMCI subjects; p = 0.037,reduces DG/CA3 hyper-activity
same,Benton Visual Rentention Test performance,aMCI subjects,fail to rescue performance
same,Buschke Selective Reminding Test - Delayed Recall performance,aMCI subjects,fail to rescue performance
same,Verbal Paired Associates Test - Delayed Recall performance,aMCI subjects,fail to rescue performance
same,Verbal Paired Associates Test - Recognition performance,aMCI subjects,fail to rescue performance
same,absorption,[1]; after oral administration,rapidly and almost completely absorbed
same,plasma half-life,[1]; expected in elderly due to decreased renal function,9 to 10 h
same,time of peak plasma concentrations,[1]; following oral administration,about 1 hour
same,plasma half-life,[1]; in vivo,approximately 7 ± 1 hour
same,time to steady state,[1]; multiple twice-daily dosing,2 days
same,effect of food on bioavailability,[1]; oral administration,not affected by food
